Results from patent US11136317B2, “NADPH oxidase 4 inhibitors” (ACTELION PHARMACEUTICALS LTD, priority 2015, dated 2021).

Target: T1, human NOX4 (Homo sapiens, UniProt Q9NPH5)
T1 construct: The full-length human NOX4 (NM_016931.3) transcript was cloned; expressed in transfected cells
T1 sequence (Q9NPH5 1-578): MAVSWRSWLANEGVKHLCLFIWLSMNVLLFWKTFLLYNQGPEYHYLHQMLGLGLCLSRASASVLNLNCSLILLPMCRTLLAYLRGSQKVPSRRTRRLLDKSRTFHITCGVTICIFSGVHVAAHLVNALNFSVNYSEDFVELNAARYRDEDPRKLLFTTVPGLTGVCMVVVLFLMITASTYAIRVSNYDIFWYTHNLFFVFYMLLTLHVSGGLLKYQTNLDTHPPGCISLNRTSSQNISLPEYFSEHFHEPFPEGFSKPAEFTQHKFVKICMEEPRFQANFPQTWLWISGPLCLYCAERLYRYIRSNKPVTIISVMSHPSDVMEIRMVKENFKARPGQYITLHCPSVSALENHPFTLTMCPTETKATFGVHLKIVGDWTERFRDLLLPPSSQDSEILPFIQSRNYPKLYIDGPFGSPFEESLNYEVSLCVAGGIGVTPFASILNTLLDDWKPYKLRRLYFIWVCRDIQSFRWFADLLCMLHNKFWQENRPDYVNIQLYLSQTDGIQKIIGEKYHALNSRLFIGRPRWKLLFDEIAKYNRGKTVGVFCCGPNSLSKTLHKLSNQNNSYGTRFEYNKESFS
T1 sequence (P13498 1-195 partner): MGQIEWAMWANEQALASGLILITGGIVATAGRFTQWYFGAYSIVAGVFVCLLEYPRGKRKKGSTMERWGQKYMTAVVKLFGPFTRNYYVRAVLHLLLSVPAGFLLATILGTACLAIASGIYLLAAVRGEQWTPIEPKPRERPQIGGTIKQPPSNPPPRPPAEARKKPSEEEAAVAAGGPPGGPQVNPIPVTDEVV
Assay: Amplex Red activity assay (cellular H2O2 formation in hNOX4 T-REx-293 cells)
Format: cell-based
Conditions: tet-induced 24 h, extracellular H2O2 by Amplex Red, 60 min 25° C., geometric mean if determined several times
Experimental: The nucleotide sequence and the amino acid sequence for the human NOX4 (Entrez Gene ID 50507) is known in the art and are published. The potency and efficacy of the compounds of Formula (I) are assessed for their potential to inhibit the formation of ROS in a cellular assay.
The full-length human NOX4 (NM_016931.3) transcript was cloned into the pDONR™221 vector (Life Technologies™) in order to generate, by site-specific integration according to the recommendation of the manufacturer (Life Technologies™), a recombinant pJTI™ R4 DEST CMV-TO vector containing the NOX4 coding information controlled by tetracycline (tet) responsive tet-on cytomegalovirus promoter (hNOX4 pDEST).
Modified human embryonic kidney cells overexpressing a tet receptor (Jump-In™ T-REx™ HEK293; Life Technologies™) were transfected with the NOX4-containing tet-on vector (hNOX4 pDEST) to generate a stable recombinant cell pool (hNOX4 T-REx-293). hNOX4 T-REx-293 cells were cultured in DMEM containing 4.5 g/L glucose supplemented with 10% fetal calf serum, penicillin (100 U/mL), streptomycin (100 μg/mL), geneticin (1 mg/mL), and blasticidin (5 μg/mL) at 37° C. in air with 5% CO2. Human Nox4 expression was induced with tet (1 μg/mL) for 24 h and extracellular H2O2 was quantified using the Amplex Red reagent (Life Technologies™).
Compounds were prepared as 10 mM stock solution in DMSO vehicle, then diluted in 384-well plates using DMSO followed by a transfer of the dilutions into the assay plate. As a control, diphenylene iodonium was included at a final concentration of 10 μM. Compounds were tested at 10 concentrations in the range from 50 μM highest to 100 nM lowest.
Cellular H2O2 formation was measured using the Amplex Red reagent. […] Cells were seeded into 384-well clear bottom plates at a density of 20 000 cells per well in presence or absence of compounds. […] All wells contained 1.25% of DMSO. The plates were kept at 25° C. for 60 min. The amount of produced resorufin was detected with the Synergy™ Mx microplate reader (BioTek) with excitation and emission wavelengths set to 550 nm and 600 nm, respectively. Fluorescence was measured for each well and the fluorescence at 600 nm wavelength was compared to the fluorescence of the vehicle in place of compound. Inhibitory activities of example compounds were determined by calculating the IC50 value (the concentration of compound needed to inhibit 50% of the enzyme activity). The calculated IC50 values may fluctuate depending on the daily cellular assay performance. Fluctuations of this kind are known to those skilled in the art.

Row | SMILES | IC50
1 | O=C(Nc1ccc2oc(N3CCN(C4COC4)CC3)nc2c1)c1ccc2c(c1)CCO2 [Example 53, 2,3-Dihydro-benzofuran-5-carboxylic acid [2-(4-oxetan-3-yl-piperazin-1-yl)-benzooxazol-5-yl]-amide] | 0.913 µM
2 | CN(c1nc2cc(NC(=O)c3ccc4c(c3)CCO4)ccc2o1)C1CCN(C2COC2)CC1 [Example 54, 2,3-Dihydro-benzofuran-5-carboxylic acid {2-[methyl-(1-oxetan-3-yl-piperidin-4-yl)-amino]-benzooxazol-5-yl}-amide] | 2.91 µM
3 | O=C(Nc1ccc2oc(N3CCCC4(COC4)C3)nc2c1)c1ccc2c(c1)CCO2 [Example 55, 2,3-Dihydro-benzofuran-5-carboxylic acid [2-(2-oxa-6-aza-spiro[3.5]non-6-yl)-benzooxazol-5-yl]-amide] | 0.4 µM
4 | CN(CC1COC1)c1nc2cc(NC(=O)c3ccc4c(c3)CCO4)ccc2o1 [Example 56, 2,3-Dihydro-benzofuran-5-carboxylic acid [2-(methyl-oxetan-3-ylmethyl-amino)-benzooxazol-5-yl]-amide] | 0.906 µM
5 | CN(c1nc2cc(NC(=O)c3ccc4c(c3)CCO4)ccc2o1)C1COC1 [Example 57, 2,3-Dihydro-benzofuran-5-carboxylic acid [2-(methyl-oxetan-3-yl-amino)-benzooxazol-5-yl]-amide] | 0.681 µM
6 | COCC1CCCN1c1nc2cc(NC(=O)c3ccc4c(c3)CCO4)ccc2o1 (centres unmarked) [Example 58, 2,3-Dihydro-benzofuran-5-carboxylic acid [2-(2-methoxymethyl-pyirolidin-1-yl)-benzooxazol-5-yl]-amide] | 1.33 µM
7 | COC1CCCN(c2nc3cc(NC(=O)c4ccc5c(c4)CCO5)ccc3o2)C1 (centres unmarked) [Example 59, 2,3-Dihydro-benzofuran-5-carboxylic acid [2-(3-methoxy-piperidin-1-yl)-benzooxazol-5-yl]-amide] | 0.731 µM
8 | CN(C)CC1CCN(c2nc3cc(NC(=O)c4ccc5c(c4)CCO5)ccc3o2)C1 (centres unmarked) [Example 60, 2,3-Dihydro-benzofuran-5-carboxylic acid [2-(3-dimethylaminomethyl-pyrrolidin-1-yl)-benzooxazol-5-yl]-amide] | 1.67 µM
9 | CN(C)CC1CCCN1c1nc2cc(NC(=O)c3ccc4c(c3)CCO4)ccc2o1 (centres unmarked) [Example 61, 2,3-Dihydro-benzofuran-5-carboxylic acid [2-(2-dimethylaminomethyl-pyrrolidin-1-yl)-benzooxazol-5-yl]-amide] | 5.24 µM
10 | O=C(Nc1ccc2oc(N(C3CC3)C3COC3)nc2c1)c1ccc2c(c1)CCO2 [Example 63, 2,3-Dihydro-benzofuran-5-carboxylic acid [2-(cyclopropyl-oxetan-3-yl-amino)-benzooxazol-5-yl]-amide] | 0.359 µM
11 | O=C(Nc1ccc2oc(N3CC(N4CCCC4)C3)nc2c1)c1ccc2c(c1)CCO2 [Example 64, 2,3-Dihydro-benzofuran-5-carboxylic acid [2-(3-pyrrolidin-1-yl-azetidin-1-yl)-benzooxazol-5-yl]-amide] | 2.13 µM
12 | CC(C)(O)C1CN(c2nc3cc(NC(=O)c4ccc5c(c4)CCO5)ccc3o2)C1 [Example 65, 2,3-Dihydro-benzofuran-5-carboxylic acid {2-[3-(1-hydroxy-1-methyl-ethyl)-azetidin-1-yl]-benzooxazol-5-yl}-amide] | 0.851 µM
13 | CN(C)CC1CN(c2nc3cc(NC(=O)c4ccc5c(c4)CCO5)ccc3o2)C1 [Example 66, 2,3-Dihydro-benzofuran-5-carboxylic acid [2-(3-dimethylaminomethyl-azetidin-1-yl)-benzooxazol-5-yl]-amide] | 4.17 µM
14 | CN1CCC2(CC1)CCN2c1nc2cc(NC(=O)c3ccc4c(c3)CCO4)ccc2o1 [Example 67, 2,3-Dihydro-benzofuran-5-carboxylic acid [2-(7-methyl-1,7-diaza-spiro[3.5]non-1-yl)-benzooxazol-5-yl]-amide] | 3.08 µM
